{"source": "patent US20180133211A1", "about": "“METHODS AND MATERIALS FOR PROMOTING BONE FORMATION” (Mayo Foundation for Medical Education and Research, priority 2015, published 2018)", "key": {"[1]": {"tested_on": "RAW 264.7 cells", "test": "Cell count (proliferation/viability)", "format": "cell-based, mouse", "details": "RAW 264.7, 24 hours, doses of 3 μM and higher", "description": "Cell lines were seeded in 24-well culture dishes at a density of 20,000/cm^2 and were either left untreated (controls) or treated with L- or DL-SFN at the indicated concentrations for up to 48 hours. Thereafter, cells were detached with 0.001% pronase E, and the number of viable cells was assessed with Casy cell counter (Schaerfe Systems, Reutlingen, Germany). Each experiment was performed in quadruplicate, and experiments were carried out twice. For long term experiments, cell number was determined using DNA amount as surrogate. Cell layers were washed with PBS and fixed for 20 minutes with 4% PFA. Thereafter, Hoechst 33258 dye (Polysciences, Warrington, Pa., USA) was added (1 μg/mL), and, after an incubation of 15 minutes at room temperature, the fluorescence was measured (excitation 360, emission 465 nm). The amount of DNA was estimated using a standard curve prepared from calf thymus DNA (Roche)."}, "[2]": {"tested_on": "MC3T3-E1 cells", "test": "RT-qPCR mRNA expression", "format": "cell-based, mouse", "details": "MC3T3-E1, 3 μM; for mRNA expression of Bglap2, Colla1, Lox and Alpl: 14 days", "description": "(§1) Total RNA was extracted using the SV Total RNA Isolation kit (Promega) following the supplier's instructions. cDNA was synthesized from about 0.5 μg RNA using the First Strand cDNA Synthesis kit (Roche) as described by the supplier. The resulting cDNAs were subjected to quantitative PCR amplification with a real-time cycler using the QUANTITECT™ SYBR® Green PCR Kit (Qiagen, Hilden, Germany) for the genes Alpl, Fas, Lox, Tet1, Tet2, and TAQMAN® Gene expression Master Mix (Applied Biosystems, Foster City, Calif., USA) for measuring Runx2, Bglap2, Colla1, Tnfsf11, and 18S rRNA expression (for primers, see Table 1). SYBR-Green RT-qPCR was started with an initial denaturation step at 95° C. for 10 minutes and then continued with 45 cycles consisting of 30 seconds denaturation at 95° C., 30 seconds annealing at primer-specific temperatures, and extension at 72° C. For measurement of the TAQMAN® assays, an initial denaturation at 95° C. for 10 minutes was applied, followed by 45 cycles alternating 60 seconds at 60° C. and 15 seconds at 95° C. All RT-qPCR assays were performed in triplicate, and expression was evaluated using the comparative quantification method (Pfaffl, Nucleic Acids Res., 29:e45 (2001))."}, "[3]": {"tested_on": "MLO-Y4 cells", "test": "RT-qPCR mRNA expression", "format": "cell-based, mouse", "details": "MLO-Y4, 3 μM", "description": "as §1"}, "[4]": {"tested_on": "RAW 264.7 cells", "test": "RT-qPCR mRNA expression", "format": "cell-based, mouse", "details": "RAW 264.7, 3 μM", "description": "as §1"}, "[5]": {"tested_on": "BMSCs", "test": "RT-qPCR mRNA expression", "format": "cell-based, mouse", "description": "Mouse bone marrow mesenchymal stem cells were isolated from aseptically dissected long bones of 6-week old C57BL/6 mice (Himberg, Austria). The marrow cavities were flushed with sterile medium using a 25-gauge needle, and the culture was established in α-MEM supplemented with 10% FCS and […]. After 48 hours of culture at 5% CO2 and 37° C., the non-adherent cells were removed by gentle rinsing with PBS. At confluence, cells were harvested and seeded at a density of 3,000/cm^2 for cell experiments. […]\nas §1, with “SYBR-Green RT-qPCR was started with an initial denaturation step at 95° C. for 10 minutes and then continued with 45 cycles consisting of 30 seconds denaturation at 95° C., 30 seconds annealing at primer-specific temperatures, and extension at 72° C. For measurement of the TAQMAN® assays, an initial denaturation at 95° C. for 10 minutes was applied, followed by 45 cycles alternating 60 seconds at 60° C. and 15 seconds at 95° C.” left out"}, "[6]": {"test": "Tolerability of DL-SFN injections in mice", "format": "in vivo, mouse", "details": "7.5 mM DL-SFN, 200 μL intraperitoneally every other day for five weeks", "description": "Analysis of SFN on mice was performed using a protocol similar to that described elsewhere (Kong et al., Arthritis Rheum., 62:159-170 (2010)). In the experimental setting herein, eight week old sham operated or ovariectomized (OVX) C57B16/J female mice were purchased from Charles River laboratories. Mice were injected with 7.5 mM DL-SFN (200 μL of SFN at a concentration of 63.8 mg/mL/kg dissolved in ethanol and further diluted in PBS) intraperitoneally every other day for five weeks. Control mice received vehicle alone."}, "[7]": {"tested_on": "sham or OVX female C57BL/6 mice", "test": "microCT of femur in estrogen-deficient ovariectomy (OVX) model, GSK126 for 6 weeks", "format": "in vivo, mouse", "details": "for SMI / Tb.N / Tb.Sp / Tb.Th / BV/TV: distal femur metaphysis; for SMI / Tb.N / Tb.Sp / Tb.Th / Ct. Ar / Ct. BV / Ct. Mat.M.Dn / Ct. Ps.Ar / Ct. Th / Ec. Ar / BV/TV: 50 mg/kg, 6 weeks; for SMI / Tb.N / Tb.Sp / Tb.Th / Ct. Ar / Ct. BV / Ct. Mat.M.Dn / Ct. Ps.Ar / Ct. Th / Ec. Ar / Ct. TV / BV/TV: mean; for Ct. Ar / Ct. BV / Ct. Mat.M.Dn / Ct. Ps.Ar / Ct. Th / Ec. Ar / Ct. TV: femoral midshaft; for Ct. TV: GSK126 50 mg/kg daily IP 6 weeks; for BV/TV: trabecular bone", "description": "The effects of GSK126 administration on the skeleton was evaluated in an estrogen-deficient ovariectomy (OVX) model. At about 12 weeks of age, female C57BL/6 mice underwent either sham or OVX surgeries. The following day, animals received daily IP injections of GSK126 or vehicle (DMSO) at 50 mg/kg body weight for 6 weeks as described herein. To label mineralizing bone surfaces and study bone formation rates, mice received subcutaneous injections of tetracycline (25 mg/kg) 14 days prior sacrifice and calcein (10 mg/kg) at 5 days and 24 hours before euthanasia.\nThe quantitative analysis of the femoral metaphysis was performed using a vivaCT 40 scanner (SCANCO Medical AG) with the following parameters: E=55 kVp, 1=145 μA, integration time=300 ms. A 10.5 μm voxel size using a threshold of 220 was applied to all scans at high resolution. Using two-dimensional data from scanned slices, 3D analysis was generated and used to calculate morphometric parameters defining trabecular bone mass and micro-architecture, including Bone Volume/Tissue volume (BV/TV), trabecular number (Tb.N.), trabecular thickness (Tb.Th.), trabecular spacing (Tb.Sp.), and the structure model index (SMI), an indicator of plate-like versus rod-like trabecular architecture."}}, "data": [{"compound": "C[S+]([O-])CCCCN=C=S", "note": "(racemic) [DL-SFN]", "values": [{"measurement": "number of viable cells", "setting": "[1]", "result": "reduced"}, {"measurement": "Runx2 mRNA expression", "setting": "[2]", "result": "stimulates"}, {"measurement": "Fas mRNA expression", "setting": "[2]; 8 hours", "result": "not affected"}, {"measurement": "Fas mRNA expression", "setting": "[2]; 16 hours", "result": "significantly increased"}, {"measurement": "mRNA expression of Bglap2, Colla1, Lox and Alpl", "setting": "[2]", "result": "increased"}, {"measurement": "mRNA expression for Tet1 or Tet2", "setting": "[3]", "result": "did not positively change"}, {"measurement": "Tnfsf11 mRNA expression", "setting": "[3]; 3 and 8 days, significant only at 8 days", "result": "reduced"}, {"measurement": "Fas mRNA expression", "setting": "[3]; 8 hours", "result": "not affected"}, {"measurement": "Fas mRNA expression", "setting": "[3]; 16 hours", "result": "significantly increased"}, {"measurement": "Tet1 mRNA levels", "setting": "[4]; 8 and 16 hours, Tet2 not upregulated", "result": "upregulated"}, {"measurement": "expression of the pro-apoptotic gene Fas", "setting": "[4]; 8 hours", "result": "not at 8 hours"}, {"measurement": "expression of the pro-apoptotic gene Fas", "setting": "[4]; 16 hours", "result": "up-regulated"}, {"measurement": "Bglap2 mRNA expression", "setting": "[5]", "result": "up regulated"}, {"measurement": "Runx2 mRNA expression", "setting": "[5]; 3 μM", "result": "stimulates"}, {"measurement": "apparent adverse effects (weight loss, physical appearance, behavior)", "setting": "[6]", "result": "did not show apparent adverse effects"}]}, {"compound": "CC[C@H](C)n1cc(C)c2c(C(=O)NCc3c(C)cc(C)[nH]c3=O)cc(-c3ccc(N4CCNCC4)nc3)cc21", "note": "[GSK126, N-[(1,2-dihydro-4,6-dimethyl-2-oxo-3-pyridinyl)methyl]-3-methyl-1-[(1S)-1-methylpropyl]-6-[6-(1-piperazinyl)-3-pyridinyl]-1H-indole-4-carboxamide]", "values": [{"measurement": "SMI", "setting": "[7]; OVX", "result": 3.758}, {"measurement": "Tb.N", "setting": "[7]; OVX", "result": 2.102, "unit": "mm^−1"}, {"measurement": "Tb.Sp", "setting": "[7]; OVX", "result": 0.499, "unit": "mm"}, {"measurement": "Tb.Th", "setting": "[7]; OVX", "result": 0.047, "unit": "mm"}, {"measurement": "Ct. Ar", "setting": "[7]; OVX", "result": 0.771, "unit": "mm^2"}, {"measurement": "Ct. BV", "setting": "[7]; OVX", "result": 0.405, "unit": "mm^3"}, {"measurement": "Ct. Mat.M.Dn", "setting": "[7]; OVX", "result": 1067, "unit": "mgHA/cm^3"}, {"measurement": "Ct. Ps.Ar", "setting": "[7]; OVX", "result": 0.809, "unit": "mm^2"}, {"measurement": "Ct. Th", "setting": "[7]; OVX", "result": 0.19, "unit": "mm"}, {"measurement": "Ec. Ar", "setting": "[7]; OVX", "result": 0.038, "unit": "mm^2"}, {"measurement": "Ct. TV", "setting": "[7]; OVX", "result": 0.425, "unit": "mm^3"}, {"measurement": "BV/TV", "setting": "[7]; OVX", "result": 1.404, "unit": "%"}, {"measurement": "SMI", "setting": "[7]; SHAM", "result": 4.168}, {"measurement": "Tb.N", "setting": "[7]; SHAM", "result": 2.496, "unit": "mm^−1"}, {"measurement": "Tb.Sp", "setting": "[7]; SHAM", "result": 0.402, "unit": "mm"}, {"measurement": "Tb.Th", "setting": "[7]; SHAM", "result": 0.042, "unit": "mm"}, {"measurement": "Ct. Ar", "setting": "[7]; SHAM", "result": 0.782, "unit": "mm^2"}, {"measurement": "Ct. BV", "setting": "[7]; SHAM", "result": 0.411, "unit": "mm^3"}, {"measurement": "Ct. Mat.M.Dn", "setting": "[7]; SHAM", "result": 1065, "unit": "mgHA/cm^3"}, {"measurement": "Ct. Ps.Ar", "setting": "[7]; SHAM", "result": 0.82, "unit": "mm^2"}, {"measurement": "Ct. Th", "setting": "[7]; SHAM", "result": 0.197, "unit": "mm"}, {"measurement": "Ec. Ar", "setting": "[7]; SHAM", "result": 0.037, "unit": "mm^2"}, {"measurement": "Ct. TV", "setting": "[7]; SHAM", "result": 0.430, "unit": "mm^3"}, {"measurement": "BV/TV", "setting": "[7]; SHAM", "result": 1.642, "unit": "%"}, {"measurement": "OVX-induced cortical bone loss", "setting": "[7]; ovariectomized female mice, daily regimen, in words", "result": "mitigated"}]}, {"compound": "C[S+]([O-])CCCCN=C=S", "note": "[L-SFN]", "values": [{"measurement": "number of viable cells", "setting": "[1]", "result": "reduced"}, {"measurement": "Fas mRNA expression", "setting": "[2]; 8 hours", "result": "not affected"}, {"measurement": "mRNA expression of Bglap2, Colla1, Lox and Alpl", "setting": "[2]", "result": "increased"}, {"measurement": "Fas mRNA expression", "setting": "[3]; 8 hours", "result": "not affected"}, {"measurement": "expression of the pro-apoptotic gene Fas", "setting": "[4]; 8 hours", "result": "not at 8 hours"}, {"measurement": "expression of the pro-apoptotic gene Fas", "setting": "[4]; 16 hours", "result": "up-regulated"}]}]}
